Data published in patent publication US20110268842A1 (SIGMA ALIMENTOS, S.A. DE C.V., priority 2008, published 2011).

Test system: Bifidobacterium animalis PTA-9175
Assay: Determination of resistance patterns (Kirby-Bauer, inhibition halos)
Type: cell-based
Conditions: sensidiscs on Mueller-Hinton agar; diameter 0 = resistant
Protocol: Method: To determine the phenotype of resistance to antibiotics the Kirby-Bauer method was used. From a young culture of 18 to 24 hours several colonies were taken with a sterile swab and inoculated into a test tube with a sterile, isotonic saline solution. The inoculum was visually adjusted to a turbidity of 0.5 on the McFarland scale. Within 15 minutes the inoculum was adjusted, a sterile swab was introduced into the suspension and when removing it the excess liquid was eliminated. Agar Mueller-Hinton plates were inoculated, leaving no free zone, sliding the swab across the surface of the agar 3 times, rotating the plate 60° each time and finally passing it over the periphery of the agar to achieve a uniform seed.
The plates were left to dry for 3 to 5 min and the sensidiscs of the following antibiotics were placed: norfloxacin, cephalothin, azithromycin, tobramycin, ampicillin/sulbactam, erythromycin cefatoxim, nalidixic acid, ceftazidime, aztreonam, vancomycin, cefuroxime, rifampicyn, nitrofurantoin, oxacylin, nefilmicin amikacin, kanamycin ticarcillin, clindamycin, ampicillin.
All strains with an inhibition diameter of 0 are resistant to the tested antibiotic.

Compound	Inhibition halo (mm)
NCC[C@H](O)C(=O)N[C@@H]1C[C@H](N)[C@@H](O[C@H]2O[C@H](CN)[C@@H](O)[C@H](O)[C@H]2O)[C@H](O)[C@H]1O[C@H]1O[C@H](CO)[C@@H](O)[C@H](N)[C@H]1O [Amikacin]	0
Rifampicyn	2
CC1COc2c(N3CCN(C)CC3)c(F)cc3c(=O)c(C(=O)O)cn1c23 (stereo not drawn) [Ofloxacin]	12
CO/N=C(\C(=O)N[C@@H]1C(=O)N2C(C(=O)O)=C(COC(C)=O)CS[C@H]12)c1csc(N)n1 [Cefatoxim]	40
CC(C)(O/N=C(\C(=O)N[C@@H]1C(=O)N2C(C(=O)[O-])=C(C[n+]3ccccc3)CS[C@H]12)c1csc(N)n1)C(=O)O [Ceftazidime]	38
CN[C@H](CC(C)C)C(=O)N[C@H]1C(=O)N[C@@H](CC(N)=O)C(=O)N[C@H]2C(=O)N[C@H]3C(=O)N[C@H](C(=O)N[C@H](C(=O)O)c4cc(O)cc(O)c4-c4cc3ccc4O)[C@H](O)c3ccc(c(Cl)c3)Oc3cc2cc(c3O[C@@H]2O[C@H](CO)[C@@H](O)[C@H](O)[C@H]2O[C@H]2C[C@](C)(N)[C@H](O)[C@H](C)O2)Oc2ccc(cc2Cl)[C@H]1O [Vancomycin]	27
Cc1onc(-c2ccccc2)c1C(=O)N[C@@H]1C(=O)N2[C@@H]1SC(C)(C)[C@@H]2C(=O)O [Oxacylin]	0
O=C1CN(/N=C/c2ccc([N+](=O)[O-])o2)C(=O)N1 [Nitrofurantoin]	40
Nefilmicin	0
CC[C@H]1OC(=O)[C@H](C)[C@@H](O[C@H]2C[C@@](C)(OC)[C@@H](O)[C@H](C)O2)[C@H](C)[C@@H](O[C@@H]2O[C@H](C)C[C@H](N(C)C)[C@H]2O)[C@](C)(O)C[C@@H](C)CN(C)[C@H](C)[C@@H](O)[C@]1(C)O [Azithromycin]	30
CC1(C)S[C@@H]2[C@H](NC(=O)[C@H](N)c3ccccc3)C(=O)N2[C@H]1C(=O)O [Ampicillin]	35
CC(=O)OCC1=C(C(=O)O)N2C(=O)[C@@H](NC(=O)Cc3cccs3)[C@H]2SC1 [Cephalothin]	24
C[C@H]1[C@H](NC(=O)/C(=N\OC(C)(C)C(=O)O)c2csc(N)n2)C(=O)N1S(=O)(=O)O [Aztreonam]	0
CCC[C@@H]1C[C@@H](C(=O)N[C@@H]([C@H]2O[C@H](SC)[C@H](O)[C@@H](O)[C@H]2O)[C@H](C)Cl)N(C)C1 [Clindamycin]	43
Ampicillin/Sulbactam	30
CCn1cc(C(=O)O)c(=O)c2ccc(C)nc21 [Nalidixic acid]	0
NC[C@H]1O[C@H](O[C@H]2[C@H](O)[C@@H](O[C@H]3O[C@H](CO)[C@@H](O)[C@H](N)[C@H]3O)[C@H](N)C[C@@H]2N)[C@H](O)[C@@H](O)[C@@H]1O [Kanamycin]	0
CO/N=C(\C(=O)N[C@@H]1C(=O)N2C(C(=O)O)=C(COC(N)=O)CS[C@H]12)c1ccco1 [Cefuroxime]	25
CCn1cc(C(=O)O)c(=O)c2cc(F)c(N3CCNCC3)cc21 [Norfloxacin]	0
CC[C@H]1OC(=O)[C@H](C)[C@@H](O[C@H]2C[C@@](C)(OC)[C@@H](O)[C@H](C)O2)[C@H](C)[C@@H](O[C@@H]2O[C@H](C)C[C@H](N(C)C)[C@H]2O)[C@](C)(O)C[C@@H](C)C(=O)[C@H](C)[C@@H](O)[C@]1(C)O [Erythromycin]	40
NC[C@H]1O[C@H](O[C@H]2[C@H](O)[C@@H](O[C@H]3O[C@H](CO)[C@@H](O)[C@H](N)[C@H]3O)[C@H](N)C[C@@H]2N)[C@H](N)C[C@@H]1O [Tobramycin]	0
CC1(C)S[C@@H]2[C@H](NC(=O)[C@H](C(=O)O)c3ccsc3)C(=O)N2[C@H]1C(=O)O [Ticarcillin]	40

Test system: homocysteine concentration in the blood
Assay: not given
Conditions: 400 μg/day; cited from earlier work

Compound	effect on homocysteine concentration in the blood
Nc1nc2ncc(CNc3ccc(C(=O)N[C@@H](CCC(=O)O)C(=O)O)cc3)nc2c(=O)[nH]1 [folic acid]	decrease the levels of homocysteine concentration in the blood

Test system: not given
Assay: not given
Conditions: supplements before conception; cited from earlier work

Compound	reduction of the risks of neurological defects in the future child [%]
Nc1nc2ncc(CNc3ccc(C(=O)N[C@@H](CCC(=O)O)C(=O)O)cc3)nc2c(=O)[nH]1 [folic acid]	50
